Tested on: LXRα and/or LXRβ
Assay: Co-transfection assay (LXRE luciferase reporter, CV-1 cells)
Type: cell-based, human
Details: for IC50 or EC50 (potency, activation or inhibition): tested as described in Example 33, IC50 or EC50 for LXRα and/or LXRβ, isoform not specified, read-out: activity (IC50 or EC50 for LXR); for EC50: read-out: activity (IC50 or EC50 for LXR), tested as described in Example 33, isoform not specified
From the text: To measure the ability of compounds to activate or inhibit the transcriptional activity of LXR in a cell based assay, the co-transfection assay was used. It has been shown that LXR functions as a heterodimer with RXR. For the co-transfection assay, expression plasmids for LXR and RXR are introduced via transient transfection into mammalian cells along with a luciferase reporter plasmid that contains one copy of a DNA sequence that is bound by LXR-RXR heterodimers (LXRE; Willy, P. et. al. 1995). Treatment of transfected cells with an LXR agonist increases the transcriptional activity of LXR, which is measured by an increase in luciferase activity.
CV-1 African Green Monkey Kidney Cells Co-transfection expression plasmids, comprising full-length LXRα (pCMX-h LXRα, LXRβ (pCMX-hLXRβ), or RXRα (pCMX-RXR), reporter plasmid (LXREx1-Tk-Luciferase), and control (pCMX-Galactosidase expression vector) (Willey et al. Genes & Development 9 1033-1045 (1995)). Transfection reagent such as FuGENE6 (Roche). 1× Cell lysis buffer (1% Triton X 100 (J T Baker X200-07), 10% Glycerol (J T Baker M778-07), 5 mM Ditriotreitol (Quantum Bioprobe DTT03; add fresh before lysing), 1 mM EGTA (Ethylene Glycol-bis(B-Amino ethyl ether)-N,N,N′,N′-Tetracetic Acid) (Sigma E-4378), 25 mM Tricine (ICN 807420) pH 7.8) 1× Luciferase assay buffer (pH at 7.8) (0.73 mM ATP, 22.3 mM Tricine, 0.11 mM EDTA, 33.3 mM DTT) 1× Luciferrin/CoA (11 mM Luciferin, 3.05 mM Coenzyme A, 10 mM HEPES)
CV-1 cells were prepared 24 hours prior to the experiment by plating them into T-175 flasks or 500 cm^2 dishes in order to achieve 70-80% confluency on the day of the transfection. The number of cells to be transfected was determined by the number of plates to be screened. Each 384 well plate requires 1.92×10^6 cells or 5000 cells per well. DNA Transfection Reagent was prepared by mixing the required plasmid DNAs with a cationic lipid transfection reagent FuGENE6 (Roche) by following the instructions provided with the reagents. Optimal DNA amounts were determined empirically per cell line and size of vessel to be transfected. 10-12 mL of media was added to the DNA Transfection Reagent and this mixture was added to the cells after aspirating media from the T175 cm^2 flask. Cells were then incubated at least 5 hours at 37° C. to prepare screening cells.
Luciferase assay reagent was prepared by combining before use (per 10 mL): 10 mL 1× Luciferase assay buffer; 0.54 mL of 1× Luciferrin/CoA; 0.54 mL of 0.2 M Magnesium sulfate
Assay plates were prepared by dispensing 5 μL, of compound per well of a 384 well plate to achieve final compound concentration of 10 μM and no more than 1% DMSO. Media was removed from the screening cells, the cells trypsinized, harvested cells by centrifugation, counted, and plated at a density of approximately 5000 cells per well in the 384 well assay plate prepared above in a volume of about 45 μL. Assay plates containing both compounds and screening cells (50 μL in total volume) were incubated for 20 hours at 37° C.
After incubation with compounds, media was removed from the cells and lysis buffer (30 μL/well) added. After 30 minutes at ambient temperature, luciferase assay buffer (30 μL/well) was added and the assay plates read on a luminometer (PE Biosystems Northstar reader with on-board injectors, or equivalent). Plates were read immediately after addition of luciferase assay buffer.
The LXR/LNRE co-transfection assay can be used to establish the EC50/IC50 values for potency and percent activity or inhibition for efficacy. Efficacy defines the activity of a compound relative to a high control ((N-(3-((4-fluorophenyl)-(naphthalene-2-sulfonyl)amino)propyl)-2,2-dimethylpropionamide)) or a low control (DMSO/vehicle). The dose response curves are generated from an 8 point curve with concentrations differing by ½ LOG units. Each point represents the average of 4 wells of data from a 384 well plate. […]

Structure (SMILES) | IC50 or EC50 (potency, activation or inhibition) [µM] | EC50 [µM]
CCS(=O)(=O)c1cc(-c2ccc(-n3cc(C(C)(C)O)nc3Cc3c(Cl)cccc3Cl)cc2)ccc1CO [Example 8] | < 1 | 
CCS(=O)(=O)c1cccc(-c2ccc(-n3cc(C(C)(C)O)nc3Cc3c(F)cccc3Cl)cc2)c1 [Example 10, 2-(2-(2-chloro-6-fluorobenzyl)-1-(3′-(ethylsulfonyl)biphenyl-4-yl)-1H-imidazol-4-yl)propan-2-ol] | < 1 | 
CCC(O)(CC)c1cn(-c2ccc(-c3cccc(S(=O)(=O)CC)c3)cc2)c(Cc2ccccc2Cl)n1 [Example 14] | < 1 | 
CCS(=O)(=O)c1cccc(-c2ccc(-n3cc(C(C)(C)O)nc3C(C)(C)c3cccc(Cl)c3Cl)cc2)c1 [Example 22, 2-(2-(2-(2,3-dichloro-phenyl)propan-2-yl)-1-(3′-(ethylsulfonyl)biphenyl-4-yl)-1H-imidazol-4-yl)propan-2-ol] |  | < 1
Cc1cc(-c2cccc(S(C)(=O)=O)c2)ccc1-n1cc(C(C)(C)O)nc1Cc1cccc(Cl)c1Cl [Example 23, 2-(2-(2,3-dichlorobenzyl)-1-(3-methyl-3′-(methylsulfonyl)biphenyl-4-yl)-1H-imidazol-4-yl)propan-2-ol] |  | < 1
CCS(=O)(=O)c1cccc(-c2ccc(-n3cc(C(C)(C)O)nc3Cc3cccc(Cl)c3Cl)c(C)c2)c1 [Example 24, 2-(2-(2,3-dichlorobenzyl)-1-(3′-(ethylsulfonyl)-3-methylbiphenyl-4-yl)-1H-imidazol-4-yl)propan-2-ol] |  | < 1
CC(C)(O)c1cn(-c2ccc(-c3cccc(S(C)(=O)=O)c3)cc2Cl)c(Cc2cccc(Cl)c2Cl)n1 [Example 25, 2-(1-(3-chloro-3′-(methyl-sulfonyl)biphenyl-4-yl)-2-(2,3-dichlorobenzyl)-1H-imidazol-4-yl)propan-2-ol] |  | < 1
CCS(=O)(=O)c1cccc(-c2ccc(-n3cc(C(C)(C)O)nc3Cc3cccc(Cl)c3Cl)c(Cl)c2)c1 [Example 26, 2-(1-(3-chloro-3′-(ethyl-sulfonyl)biphenyl-4-yl)-2-(2,3-dichlorobenzyl)-1H-imidazol-4-yl)propan-2-ol] |  | < 1
CC(C)(O)c1cn(-c2ccc(-c3cccc(S(C)(=O)=O)c3)cc2)c(CCc2ccccc2Cl)n1 [Example 27, 2-(2-(2-chlorophenethyl)-1-(3′-(methylsulfonyl)biphenyl-4-yl)-1H-imidazol-4-yl)propan-2-ol] |  | < 1
CCS(=O)(=O)c1cccc(-c2ccc(-n3cc(C(C)(C)O)nc3CCc3ccccc3Cl)cc2)c1 [Example 28, 2-(2-(2-chlorophenethyl)-1-(3′-(ethylsulfonyl)biphenyl-4-yl)-1H-imidazol-4-yl)propan-2-ol] |  | < 1
CC(C)(O)c1cn(-c2ccc(-c3ccc(CO)c(S(C)(=O)=O)c3)cc2)c(CCc2ccccc2Cl)n1 [Example 29] | < 1 | 
CC(C)(O)c1cn(-c2ccc(-c3cccc(S(C)(=O)=O)c3)cc2Cl)c(-c2cccc3ccccc23)n1 [Example 30, 2-(1-(3-chloro-3′-(methyl-sulfonyl)biphenyl-4-yl)-2-(naphthalen-1-yl)-1H-imidazol-4-yl)propan-2-ol] | < 1 | 
CCS(=O)(=O)c1cccc(-c2ccc(-n3cc(C(C)(C)O)nc3-c3cccc4ccccc34)c(Cl)c2)c1 [Example 31, 2-(1-(3-chloro-3′-(ethyl-sulfonyl)biphenyl-4-yl)-2-(naphthalen-1-yl)-1H-imidazol-4-yl)propan-2-ol] | < 1 | 
CC(C)(O)c1cn(-c2ccc(-c3ccc(CO)c(S(C)(=O)=O)c3)cc2Cl)c(-c2cccc3ccccc23)n1 [Example 32, 2-(1-(3-chloro-4′-(hydroxy-methyl)-3-(methylsulfonyl)biphenyl-4-yl)-2-(naphthalen-1-yl)-1H-imidazol-4-yl)propan-2-ol] | < 1 | 
CC(C)(O)c1cn(-c2ccc(-c3cccc(S(C)(=O)=O)c3)cc2Cl)c(-c2nccc3ccccc23)n1 [Example 33, 2-(1-(3-chloro-3′-(methyl-sulfonyl)biphenyl-4-yl)-2-(isoquinolin-1-yl)-1H-imidazol-4-yl)propan-2-ol] | < 1 | 
CCS(=O)(=O)c1cccc(-c2ccc(-n3cc(C(C)(C)O)nc3-c3nccc4ccccc34)c(Cl)c2)c1 [Example 34, 2-(1-(3-chloro-3′-(ethyl-sulfonyl)biphenyl-4-yl)-2-(isoquinolin-1-yl)-1H-imidazol-4-yl)propan-2-ol] | < 1 | 
Cc1cc(-c2cccc(S(C)(=O)=O)c2)ccc1-n1cc(C(C)(C)O)nc1-c1cccc2cnccc12 [Example 35, 2-(2-(isoquinolin-5-yl)-1-(3-methyl-3′-(methylsulfonyl)biphenyl-4-yl)-1H-imidazol-4-yl)propan-2-ol] | 1 to 10 | 
CCS(=O)(=O)c1cccc(-c2ccc(-n3cc(C(C)(C)O)nc3-c3cccc4cnccc34)c(C)c2)c1 [Example 36, 2-(1-(3′-(ethylsulfonyl)-3-methylbiphenyl-4-yl)-2-(isoquinolin-5-yl)-1H-imidazol-4-yl)propan-2-ol] | 1 to 10 | 
CC(C)(O)c1cn(-c2ccc(-c3cccc(S(C)(=O)=O)c3)cc2)c(-c2cnccc2C(F)(F)F)n1 [Example 37, 2-(1-(3′-(methylsulfonyl)biphenyl-4-yl)-2-(4-(trifluoromethyl)pyridin-3-yl)-1H-imidazol-4-yl)propan-2-ol] | > 10 | 
CCS(=O)(=O)c1cccc(-c2ccc(-n3cc(C(C)(C)O)nc3-c3cnccc3C(F)(F)F)cc2)c1 [Example 38, 2-(1-(3′-(ethylsulfonyl)biphenyl-4-yl)-2-(4-(trifluoromethyl)pyridin-3-yl)-1H-imidazol-4-yl)propan-2-ol] | > 10 | 
Cc1cc(-c2cccc(S(C)(=O)=O)c2)ccc1-n1cc(C(C)(C)O)nc1-c1cccs1 [Example 41] | 1 to 10 | 
Cc1cc(-c2cccc(S(C)(=O)=O)c2)ccc1-n1cc(C(C)(C)O)nc1-c1ccc(C)n1C [Example 42, 2-(2-(1,5-dimethyl-1H-pyrrol-2-yl)-1-(3-methyl-3′-(methylsulfonyl)biphenyl-4-yl)-1H-imidazol-4-yl)propan-2-ol] | < 1 | 
CC(C)(O)c1cn(-c2c(Cl)cccc2Cl)c(-c2ccc(-c3cccc(S(C)(=O)=O)c3)s2)n1 [Example 44, 2-(1-(2,6-dichlorophenyl)-2-(5-(3-(methylsulfonyl)phenyl)thiophen-2-yl)-1H-imidazol-4-yl)propan-2-ol] | 1 to 10 | 
CCS(=O)(=O)c1cccc(-c2ccc(-c3nc(C(C)(C)O)cn3-c3c(Cl)cccc3Cl)s2)c1 [Example 45, 2-(1-(2,6-dichlorophenyl)-2-(5-(3-(ethylsulfonyl)phenyl)thiophen-2-yl)-1H-imidazol-4-yl)propan-2-ol] | 1 to 10 | 
CCS(=O)(=O)c1cccc(-c2ccc(-c3nc(C(C)(C)O)cn3-c3c(Cl)cccc3Cl)c(C)c2)c1 [Example 58, 2-(1-(2,6-dichlorophenyl)-2-(3′-(ethylsulfonyl)-3-methylbiphenyl-4-yl)-1H-imidazol-4-yl)propan-2-ol] | < 1 | 

From US9000022B2 (Exelixis Patent Company LLC, priority 2005, dated 2015)
